Where two headings read alike, the source gives them in different places.
How the values were obtained:
PC-3 cells = experiment: In vitro GRPR specificity assay (uptake with or without NOTA-PEG2-RM26 block); format: cell-based, human
Experimental: After discarding the medium, the cells were washed with cold (4 °C) phosphate-buffered saline containing 1% w/v bovine serum albumin (PBS/BSA). The radiopeptides (Cf = 1 nM in 1 mL PBS/BSA) were added to all wells. A subset of wells was also treated with an excess of unlabeled GRPR-binding peptide NOTA-PEG2-RM26 (Bjäreback et al. [2025]) (Cf = 1 µM in 1 mL PBS/BSA) to block GRPR. After incubation for 1 h at 37 °C, the supernatant was removed, and the cells were washed and then collected by treating them with 1 M NaOH. The activity of the collected samples was measured with the gamma counter. This assay was performed in triplicate for each radiopeptide.

[1] = Biodistribution in mice bearing PC-3 xenografts; format: in vivo, Balb/c nu/nu mice; details: mouse, total radioactivity, PC-3 xenografted Balb/c nu/nu mice, iv 100 pmol, mean ± SD; for tissue uptake at 2 h / tissue uptake at 4 h / tissue uptake at 24 h: Balb/c nu/nu, iv; for tissue uptake at 4 h / tissue uptake dose at 4 h: 4 h pi; for tissue uptake at 24 h / tissue uptake dose at 24 h: 24 h pi
Experimental: (§1) Each mouse was xenografted with a subcutaneous injection of 8 × 10⁶ PC-3 cells in the right hind leg. After approximately 4 weeks, the animals were injected into the tail vein with 100 µL of radiopeptide (100 pmol—110–130 kBq, diluted in PBS/BSA). Four animals were used for each time point per peptide. […] At the determined time points, the mice were euthanized, organs were collected and weighed, and their activity content was measured in the gamma counter. Results were presented as the percentage of injected activity per gram (%IA/g) for the collected organs, and the percentage of injected activity (%IA) for the gastrointestinal tract (GI) and the carcass. […] Statistical analysis was performed with GraphPad Prism 10 using two way ANOVA with Tuckey’s or Šidák’a post hoc analysis.

PC-3 xenografts = experiment: Biodistribution in mice bearing PC-3 xenografts; format: in vivo, Balb/c nu/nu mice; details: PC-3 xenografted mice, between 4 and 24 h pi
Experimental: as §1

[2] = In vivo stability: intact radiopeptide in peripheral mouse blood 5 min pi, radio-HPLC; details: for Percentage of intact peptide, Entresto: blood 5 min pi
Experimental: Two animals per peptide were injected intravenously with a bolus of test radioligand (50 MBq, 2 nmol of peptide in 100 μL PBS/EtOH v/v 9:1) – Control group. To inhibit NEP, additional groups of two mice per compound were orally treated with 12 mg Entresto® (Novartis, Basel, Switzerland) 30 min before receiving the intravenous injection—Entresto group. Five minutes post-injection (pi), the animals were euthanized, and the blood was collected and immediately mixed with EDTA (0.1 mM, 40 μL) in Eppendorf tubes on ice. The mixture was spun at 2000 g for 10 min at 4 °C in an Eppendorf Centrifuge 5430 R (Eppendorf AG, Hamburg, Germany), and the plasma was collected and diluted with an equal volume of MeCN (4 °C). After a second centrifugation at 15,000 g and 4 °C for 10 min, the supernatant was collected in an Eppendorf tube and concentrated to 50–100 μL at 50 °C using a mild stream of N2. PBS was added to the samples to reach a final volume of 200 μL, and the solutions were filtered through a syringe filter (0.22 μm, 13 mm, VWR International, Radnor, USA). The filtered solution was analyzed by reversed-phase radio-HPLC to determine the percentage of intact peptides. The peak corresponding to the intact peptide was identified by injection of an aliquot of the labeling solution.

[3] = blood, 100 pmol, n = 4, read-out: Blood activity uptake
[4] = bone, 100 pmol, n = 4, read-out: Bone activity uptake
[5] = kidneys, 100 pmol, n = 4, read-out: Kidneys activity uptake
[6] = liver, 100 pmol, n = 4, read-out: Liver activity uptake
[7] = lungs, 100 pmol, n = 4, read-out: Lungs activity uptake
[8] = muscle, 100 pmol, n = 4, read-out: Muscle activity uptake
[9] = pancreas, 100 pmol, n = 4, read-out: Pancreas activity uptake
[10] = small intestine, 100 pmol, n = 4, read-out: Small Int. activity uptake
[11] = spleen, 100 pmol, n = 4, read-out: Spleen activity uptake
[12] = stomach, 100 pmol, n = 4, read-out: Stomach activity uptake
[13] = tumor, 100 pmol, n = 4, read-out: Tumor activity uptake
[14] = carcass, n = 4, read-out: Body activity uptake
[15] = gastrointestinal tract with content, n = 4, read-out: GI activity uptake

Q: For `CC(C)C[C@H](NC(=O)C[C@H](O)[C@H](CC(C)C)NC(=O)[C@H](Cc1c[nH]cn1)NC(=O)CN(C)C(=O)[C@@H](NC(=O)[C@H](C)NC(=O)[C@](C)(Cc1c[nH]c2ccccc12)NC(=O)[C@H](CCC(N)=O)NC(=O)[C@@H](Cc1ccccc1)NC(=O)CN1CCC(NC(=O)COCCOCCNC(=O)CN2CCN(CC(=O)O)CCN(CC(=O)O)CCN(CC(=O)O)CC2)CC1)C(C)C)C(N)=O` [[^177Lu]Lu-PKB3, metal not drawn], which “in vitro binding specificity” value (PC-3 cells; 1 nM radiopeptide, 1 h at 37 °C, block with 1 µM NOTA-PEG2-RM26, n = 3) is on record?
A: Its value is “GRPR-mediated activity uptake”.

Q: What about the “total cellular activity uptake (rank among the three radiopeptides)” value (PC-3 cells; 1 nM, 37 °C, n = 3) of the same compound?
A: Its value is “highest”.

Q: What about the tissue uptake at 2 h ([1]; blood, 100 pmol, 2 h pi, n = 4, read-out: Blood activity uptake) of the same compound?
A: Its tissue uptake at 2 h is 0.22 ± 0.04 %ID/g.

Q: And the tissue uptake at 4 h [1, 3]?
A: The tissue uptake at 4 h was 0.09 ± 0.02 %ID/g.

Q: What about the tissue uptake at 24 h [1, 3] of the same compound?
A: Its tissue uptake at 24 h is 0.02 ± 0.01 %ID/g.

Q: What about the tissue uptake at 2 h ([1]; blood, 2 h pi blocked (co-injected 100-fold molar excess NOTA-PEG2-RM26), n = 3, read-out: Blood activity uptake) of the same compound?
A: Its tissue uptake at 2 h is 0.13 ± 0.06 %ID/g.

Q: And the tissue uptake at 2 h ([1]; bone, 100 pmol, 2 h pi, n = 4, read-out: Bone activity uptake)?
A: The tissue uptake at 2 h was 0.16 ± 0.03 %ID/g.

Q: What about the tissue uptake at 4 h [1, 4] of the same compound?
A: Its tissue uptake at 4 h is 0.13 ± 0.04 %ID/g.

Q: And the tissue uptake at 24 h [1, 4]?
A: The tissue uptake at 24 h was 0.08 ± 0.03 %ID/g.

Q: And the tissue uptake at 2 h ([1]; bone, 2 h pi blocked (co-injected 100-fold molar excess NOTA-PEG2-RM26), n = 3, read-out: Bone activity uptake)?
A: The tissue uptake at 2 h was 0.11 ± 0.03 %ID/g.

Q: And the tissue uptake at 2 h ([1]; kidneys, 100 pmol, 2 h pi, n = 4, read-out: Kidneys activity uptake)?
A: The tissue uptake at 2 h was 7.4 ± 1 %ID/g.

Q: And the tissue uptake at 4 h [1, 5]?
A: Its tissue uptake at 4 h is 5.9 ± 0.8 %ID/g.

Q: And the tissue uptake at 24 h [1, 5]?
A: Its tissue uptake at 24 h is 4.3 ± 0.8 %ID/g.

Q: What about the tissue uptake at 2 h ([1]; kidneys, 2 h pi blocked (co-injected 100-fold molar excess NOTA-PEG2-RM26), n = 3, read-out: Kidneys activity uptake) of the same compound?
A: The tissue uptake at 2 h was 5.4 ± 0.7 %ID/g.

Q: What about the tissue uptake at 2 h ([1]; liver, 100 pmol, 2 h pi, n = 4, read-out: Liver activity uptake) of the same compound?
A: The tissue uptake at 2 h was less than 0.5 %ID/g.

Q: What about the tissue uptake at 4 h [1, 6] of the same compound?
A: The tissue uptake at 4 h was 0.42 ± 0.03 %ID/g.

Q: And the tissue uptake at 24 h [1, 6]?
A: The tissue uptake at 24 h was 0.24 ± 0.02 %ID/g.

Q: What about the tissue uptake at 2 h ([1]; liver, 2 h pi blocked (co-injected 100-fold molar excess NOTA-PEG2-RM26), n = 3, read-out: Liver activity uptake) of the same compound?
A: Its tissue uptake at 2 h is 0.38 ± 0.05 %ID/g.

Q: What about the tissue uptake at 2 h ([1]; lungs, 100 pmol, 2 h pi, n = 4, read-out: Lungs activity uptake) of the same compound?
A: The tissue uptake at 2 h was 0.6 ± 0.3 %ID/g.

Q: What about the tissue uptake at 4 h [1, 7] of the same compound?
A: The tissue uptake at 4 h was 0.24 ± 0.08 %ID/g.

Q: What about the tissue uptake at 24 h [1, 7] of the same compound?
A: The tissue uptake at 24 h was 0.09 ± 0.01 %ID/g.

Q: And the tissue uptake at 2 h ([1]; lungs, 2 h pi blocked (co-injected 100-fold molar excess NOTA-PEG2-RM26), n = 3, read-out: Lungs activity uptake)?
A: The tissue uptake at 2 h was 0.27 ± 0.03 %ID/g.

Q: What about the tissue uptake at 2 h ([1]; muscle, 100 pmol, 2 h pi, n = 4, read-out: Muscle activity uptake) of the same compound?
A: Its tissue uptake at 2 h is 0.09 ± 0.02 %ID/g.

Q: And the tissue uptake at 4 h [1, 8]?
A: Its tissue uptake at 4 h is 0.1 ± 0.1 %ID/g.

Q: And the tissue uptake at 24 h [1, 8]?
A: The tissue uptake at 24 h was 0.02 ± 0.01 %ID/g.

Q: And the tissue uptake at 2 h ([1]; muscle, 2 h pi blocked (co-injected 100-fold molar excess NOTA-PEG2-RM26), n = 3, read-out: Muscle activity uptake)?
A: The tissue uptake at 2 h was 0.07 ± 0.05 %ID/g.

Q: And the tissue uptake at 2 h ([1]; pancreas, 100 pmol, 2 h pi, n = 4, read-out: Pancreas activity uptake)?
A: Its tissue uptake at 2 h is 11.9 ± 2.1 %ID/g.

Q: And the tissue uptake at 4 h [1, 9]?
A: The tissue uptake at 4 h was 4.7 ± 0.4 %ID/g.

Q: And the tissue uptake at 24 h [1, 9]?
A: The tissue uptake at 24 h was 0.5 ± 0.2 %ID/g.

Q: And the tissue uptake at 2 h ([1]; small intestine, 100 pmol, 2 h pi, n = 4, read-out: Small Int. activity uptake)?
A: The tissue uptake at 2 h was 2.2 ± 0.6 %ID/g.

Q: And the tissue uptake at 4 h [1, 10]?
A: The tissue uptake at 4 h was 1 ± 0.3 %ID/g.

Q: And the tissue uptake at 24 h [1, 10]?
A: The tissue uptake at 24 h was 0.11 ± 0.03 %ID/g.

Q: What about the tissue uptake at 2 h ([1]; small intestine, 2 h pi blocked (co-injected 100-fold molar excess NOTA-PEG2-RM26), n = 3, read-out: Small Int. activity uptake) of the same compound?
A: Its tissue uptake at 2 h is 0.7 ± 0.3 %ID/g.

Q: And the tissue uptake at 2 h ([1]; spleen, 100 pmol, 2 h pi, n = 4, read-out: Spleen activity uptake)?
A: Its tissue uptake at 2 h is 0.4 ± 0.2 %ID/g.

Q: And the tissue uptake at 4 h [1, 11]?
A: The tissue uptake at 4 h was 0.25 ± 0.07 %ID/g.

Q: And the tissue uptake at 24 h [1, 11]?
A: The tissue uptake at 24 h was 0.16 ± 0.06 %ID/g.

Q: What about the tissue uptake at 2 h ([1]; spleen, 2 h pi blocked (co-injected 100-fold molar excess NOTA-PEG2-RM26), n = 3, read-out: Spleen activity uptake) of the same compound?
A: Its tissue uptake at 2 h is 0.13 ± 0.02 %ID/g.

Q: What about the tissue uptake at 2 h ([1]; stomach, 100 pmol, 2 h pi, n = 4, read-out: Stomach activity uptake) of the same compound?
A: Its tissue uptake at 2 h is 2.5 ± 0.2 %ID/g.

Q: What about the tissue uptake at 4 h [1, 12] of the same compound?
A: The tissue uptake at 4 h was 1.9 ± 0.3 %ID/g.

Q: What about the tissue uptake at 24 h [1, 12] of the same compound?
A: The tissue uptake at 24 h was 0.16 ± 0.05 %ID/g.

Q: And the tissue uptake at 2 h ([1]; stomach, 2 h pi blocked (co-injected 100-fold molar excess NOTA-PEG2-RM26), n = 3, read-out: Stomach activity uptake)?
A: Its tissue uptake at 2 h is 0.6 ± 0.1 %ID/g.

Q: What about the tissue uptake at 2 h ([1]; tumor, 100 pmol, 2 h pi, n = 4, read-out: Tumor activity uptake) of the same compound?
A: Its tissue uptake at 2 h is 23.8 ± 2.5 %ID/g.

Q: And the tissue uptake at 4 h [1, 13]?
A: Its tissue uptake at 4 h is 18.8 ± 0.7 %ID/g.

Q: What about the tissue uptake at 24 h [1, 13] of the same compound?
A: Its tissue uptake at 24 h is 15.3 ± 2.7 %ID/g.

Q: And the tissue uptake at 2 h ([1]; tumor, 2 h pi blocked (co-injected 100-fold molar excess NOTA-PEG2-RM26), n = 3, read-out: Tumor activity uptake)?
A: The tissue uptake at 2 h was 3.4 ± 0.3 %ID/g.

Q: And the tissue uptake dose at 2 h ([1]; carcass, 2 h pi, n = 4, read-out: Body activity uptake)?
A: The tissue uptake dose at 2 h was 2.7 ± 0.8 %ID.

Q: What about the tissue uptake dose at 4 h [1, 14] of the same compound?
A: The tissue uptake dose at 4 h was 2.2 ± 0.4 %ID.

Q: And the tissue uptake dose at 24 h [1, 14]?
A: The tissue uptake dose at 24 h was 1.1 ± 0.7 %ID.

Q: What about the tissue uptake dose at 2 h ([1]; gastrointestinal tract with content, 2 h pi, n = 4, read-out: GI activity uptake) of the same compound?
A: Its tissue uptake dose at 2 h is 2 ± 0.2 %ID.

Q: What about the tissue uptake dose at 4 h [1, 15] of the same compound?
A: The tissue uptake dose at 4 h was 0.4 ± 0.3 %ID.

Q: What about the tissue uptake dose at 24 h [1, 15] of the same compound?
A: Its tissue uptake dose at 24 h is 0.16 ± 0.03 %ID.

Q: And the “tumor retention of activity” value (PC-3 xenografts)?
A: The value was “around 80%”.

Q: What about the “Percentage of intact peptide, Entresto” value ([2]; NMRI mice, 12 mg Entresto orally 30 min before injection, recorded value n1) of the same compound?
A: The value was 90% [90% - 90%].

Q: What about the “Percentage of intact peptide, Entresto” value ([2]; NMRI mice, 12 mg Entresto orally 30 min before injection, recorded value n2) of the same compound?
A: Its value is 90% [90% - 90%].

Q: And the “Percentage of intact peptide, Entresto” value ([2]; healthy NMRI mice, 12 mg Entresto orally 30 min before iv injection (NEP inhibition), radio-HPLC, mean of n = 2)?
A: The value was 90% [90% - 90%].

Q: And the “Percentage of intact peptide, Control” value ([2]; healthy NMRI mice, iv 50 MBq, 2 nmol, peripheral blood 5 min pi, radio-HPLC, mean of n = 2)?
A: The value was 91% [88% - 94%].
